Measurements from US20240307409A1, “ARGININE METHYLTRANSFERASE INHIBITOR AND USE THEREOF” (Cytosinlab Therapeutics Co., Ltd., priority 2021, published 2024).

How the values were obtained:
[1] = target: T1, PRMT4 (Homo sapiens, UniProt Q86X55); assay: PRMT panel selectivity test, PRMT4; type: biochemical
T1 sequence (Q86X55 1-608): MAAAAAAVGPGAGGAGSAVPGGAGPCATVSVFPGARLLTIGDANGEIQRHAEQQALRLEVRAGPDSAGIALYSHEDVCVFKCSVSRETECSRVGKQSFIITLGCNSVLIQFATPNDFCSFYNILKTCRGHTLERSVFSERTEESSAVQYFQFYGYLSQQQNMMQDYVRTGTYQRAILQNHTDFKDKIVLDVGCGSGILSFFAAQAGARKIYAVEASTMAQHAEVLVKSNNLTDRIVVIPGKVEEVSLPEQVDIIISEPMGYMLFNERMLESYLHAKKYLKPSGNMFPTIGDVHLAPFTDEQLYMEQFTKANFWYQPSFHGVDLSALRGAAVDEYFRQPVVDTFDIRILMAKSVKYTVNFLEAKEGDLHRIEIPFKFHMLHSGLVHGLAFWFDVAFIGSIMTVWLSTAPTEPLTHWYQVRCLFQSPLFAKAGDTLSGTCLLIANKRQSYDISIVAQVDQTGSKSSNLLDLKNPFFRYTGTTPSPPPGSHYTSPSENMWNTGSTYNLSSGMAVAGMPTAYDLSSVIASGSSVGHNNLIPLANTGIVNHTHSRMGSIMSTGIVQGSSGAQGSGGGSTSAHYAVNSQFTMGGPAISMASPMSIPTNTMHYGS
Protocol: [The procedure below names another target; the source says it served here with some conditions changed.] (§1) This experiment was assayed in a buffer prepared on the same day consisting of 10 mMTirs-HCl (pH=8.0), […] and 1 mM DTT. The compounds were prepared to the highest inhibitor concentration ultimately required in the 100× reaction with 100% DMSO and then transferred to one well of a 384-well Echo plate (Echo-eligible 384-well polypropylene microplates 2.0, transparent, flat-bottomed) and sequentially diluted in the next well with a 3-fold dilution of 100% DMSO, and so on, with a total of 10 concentrations based on Precision. 100% DMSO was added to two empty wells as control well without compound and control well without enzyme in the same 384-well Echo plate. 100 nL of compound was transferred from each well of the 384-well Echo plate to a 384-well assay plate (OptiPlate (384-well, white)) via the Echo 550 liquid processor. For wells with compounds and control well without compound, a mixture containing PRMT1 enzyme (5 uL) was added to the 384-well assay plate. For control well without enzyme, a mixture containing test buffer (5 uL) was added instead. The compounds were allowed to incubate with PRMT3 for 15 minutes at room temperature, and then a mixture containing cold SAM and peptide (5 uL) was added to start the reaction (final volume=10 uL). The final concentrations of the components were as follows: 0.1 nM for PRMT3, 15 uM for SAM, 0.05 uM for peptide, and 1% DMSO. After 60 min of incubation at room temperature, the reaction was terminated by the addition of donor and acceptor magnetic beads (15 uL) with a final concentration of 10 ug/mL diluted with AlphaLISA Epigenetics Buffer. The 384-well assay plate was incubated at room temperature for 60 min and the relative fluorescence units (RFU) were nextly determined using a multi-mode plate reader in Alpha mode (Ex680/Em615).
(§2) Curve fitting: the raw data were copied from Reader and the inhibition values were calculated in Excel by equation (1). […]

[2] = target: PRMT8 (Homo sapiens, UniProt Q9NR22); assay: PRMT panel selectivity test, PRMT8; type: biochemical
Chain of PRMT8 (Q9NR22 whole entry): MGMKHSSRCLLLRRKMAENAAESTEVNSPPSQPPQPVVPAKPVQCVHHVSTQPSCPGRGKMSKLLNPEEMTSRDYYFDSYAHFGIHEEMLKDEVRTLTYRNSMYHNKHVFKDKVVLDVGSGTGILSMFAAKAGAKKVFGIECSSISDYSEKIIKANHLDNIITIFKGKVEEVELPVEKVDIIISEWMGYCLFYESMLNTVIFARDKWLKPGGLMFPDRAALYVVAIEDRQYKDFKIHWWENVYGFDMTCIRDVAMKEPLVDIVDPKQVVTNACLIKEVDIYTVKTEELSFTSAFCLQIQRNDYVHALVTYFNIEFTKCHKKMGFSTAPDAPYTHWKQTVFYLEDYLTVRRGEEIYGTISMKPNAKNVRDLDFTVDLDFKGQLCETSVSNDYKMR
Protocol: [The procedure below names another target; the source says it served here with some conditions changed.] as §1, §2

[3] = test system: MMA in RKO cells; assay: RKO In Cell Western assay (MMA primary antibody); type: cell-based; settings: Homo sapiens, 72 hours, read-out: RKO ICW_EC30
Protocol: RKO was seeded at a concentration of 20,000 cells/ml into a polylysine-coated 96-well plate (Corning #3599), with 2,000 cells per well and 100 μL of culture mediumper well. 500 nL of compound was added to the 96-well plate. 3) The 96-well plate was incubated in a 37° C., 5% CO2 incubator for 72 hours. After three days, the 96-well plate was taken from the incubator, 100 μL of 8% paraformaldehyde solution was added to each well, and the plate was placed at room temperature for 15 min. After 15 min, the liquid in the plate was shaken out and the plate was washed three times with phosphate buffer (1*PBS). The liquid in the plate was shaken out and 200 μL of membrane-breaking buffer (0.1% (v/v) Tween-20 in PBS) was added and the plate was incubated on a shaker for 30 min. After half an hour, the liquid in the plate was shaken out, and blocking buffer was added and the plate was incubated for two hours at room temperature with shaking. After that, the liquid in the plate was shaken off, and the blocking solution containing primary antibody (MMA primary antibody, CST #8711S, 1:1000 v/v) was added to the 96-well plate and the plate was incubated at 4° C. overnight with shaking. The next day, the plate was washed three times with washing solution (0.05% (v/v) Tween-20 in PBS), and a blocking solution containing secondary antibody (goat anti-rabbit IgG (H+L) Invitrogen #31460, 1:10,000 v/v) was added and the plate was incubated for two hours at room temperature. Afterwards, the 96-well plate was washed four times with washing solution. The TMB mixture was added to the 96-well plate and then the plate was incubated for 15 minutes at room temperature with shaking. After that, the reaction terminating solution was added, and the value was read at OD450 nm using an microplate reader. The plate was washed three times with washing solution, and 50 μL of janusgreen staining solution was added, and the plate was incubated for 15 minutes at room temperature with shaking. The reaction was washed ten times with water until no color residue was left. 200 μL of 0.5 M hydrochloric acid solution was added to each well and the plate was incubated for 10 min at room temperature. The value was read at OD595 nm using Flexstation.
Firstly, the ratio OD450/OD595 was calculated for each well
Each plate had six DMSO negative control groups (ZPE) and six 10 μM positive control groups (HPE), and the average of the control group ratios was used to determine the percentage of activation for each test well. The compounds to be tested were triple diluted with DMSO for a total of 8 concentration points with a starting concentration of 5 μM. The equation for calculating the activation percentage of each test well was: […]

[4] = target: PRMT3 (Homo sapiens, UniProt O60678); assay: PRMT panel selectivity test, PRMT3; type: biochemical; settings: AlphaLISA
Chain of PRMT3 (O60678 whole entry): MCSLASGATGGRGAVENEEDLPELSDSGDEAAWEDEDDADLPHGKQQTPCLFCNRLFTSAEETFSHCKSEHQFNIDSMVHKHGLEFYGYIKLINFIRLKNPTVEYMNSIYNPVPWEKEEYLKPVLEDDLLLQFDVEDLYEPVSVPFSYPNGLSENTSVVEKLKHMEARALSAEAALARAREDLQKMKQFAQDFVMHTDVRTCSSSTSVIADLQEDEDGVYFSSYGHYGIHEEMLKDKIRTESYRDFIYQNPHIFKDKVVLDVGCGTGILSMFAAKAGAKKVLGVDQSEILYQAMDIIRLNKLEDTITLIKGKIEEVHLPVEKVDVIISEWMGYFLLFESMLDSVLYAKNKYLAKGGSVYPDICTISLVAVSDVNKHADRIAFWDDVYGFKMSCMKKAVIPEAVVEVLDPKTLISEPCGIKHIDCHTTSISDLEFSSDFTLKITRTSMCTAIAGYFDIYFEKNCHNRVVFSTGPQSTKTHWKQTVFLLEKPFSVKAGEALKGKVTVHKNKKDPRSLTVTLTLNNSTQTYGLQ
Protocol: as §1, §2

SMILES | IC50 [1] | IC50 [2] | EC30 [3] | IC50 [4]
CNCCN(C)Cc1ccccc1C1CCN(c2ccccc2)CC1 [P023] | < 50 nM | < 50 nM | < 250 nM | < 50 nM
CNCCN(C)Cc1ncccc1N1CCc2ccccc2CC1 [P118] | 50 to 500 nM | < 50 nM | < 250 nM | 50 to 500 nM
CCOCC1(COCC)CCC(c2cccnc2CN(C)CCNC)CC1 [P207] | < 50 nM | < 50 nM | < 250 nM | 50 to 500 nM
